From patent publication US8148577B2, “Polyamines useful as anti-parasitic and anti-cancer therapeutics and as lysine-specific demethylase inhibitors” (The Johns Hopkins University, priority 2005, dated 2012)

How the values were obtained:
[1] = test system: H157 (non-small cell lung carcinoma) cells; assay: 96 hr MTS dose response experiment in H157 cells; format: cell-based, human; conditions: a range means IC50 lies between the two tested concentrations
Method: (§1) MTS dose response experiments in H157, H82, and A549 cells following a 96 hr exposure with select compounds were performed. MTS is a standard colorimetric assay used for measuring metabolic activity in cells. MTS experiments were performed by CellTiter 96® AQueuos One Solution Cell Proliferation Assay from Promega Corporation. Briefly, the cells were seeded at 3000 cells/well on a 96 well tissue culture plate containing 100 ul of medium/well and allowed to attach overnight. The medium was then aspirated and replaced with 100 ul of fresh medium containing the appropriate concentration of the compound being tested and incubated for 96 hrs at 37° C. and 5% CO2. Compounds are routinely tested at concentrations ranging from 0.1 micromolar to 50 micromolar. Wells not containing the test compound were present and used as a control. Following treatment, 20 ul of MTS reagent was added to each well and incubated at 37° C. for 1.5 hrs. The absorbance of each well was then measured at 490 nm and used to determine the metabolic activity of the cells in the presence of the test compound, relative to the control. IC50 values for the test compounds were extracted based on the results.
(§2) Note that the results for a 72 hr exposure in addition to the 96 hr exposure are shown for compound 49-TDW-29C in the H157 cells. […] FIG. 1 depicts the results of a 96 hr MTS dose response experiments for compound 46-TDW-23c in H157, A549, H82 and Beas2B cells. FIG. 2 depicts the results of a 96 hr MTS dose response experiments for compound 49-TDW-9 in H157, A549, H82 and Beas2B cells. FIG. 3 depicts the results of a 96 hr MTS dose response experiments for compound 42-TDW-21c in H157, A549, H82 and Beas2B cells. FIG. 4 depicts the results of a 96 hr MTS dose response experiments for compound 46-TDW-19c in H157, A549, H82 and Beas2B cells. FIG. 5 depicts the results of a 96 hr MTS dose response experiments for compound 49-TDW-17c in H157, A549, H82 and Beas2B cells. FIG. 6 depicts the results of a 96 hr MTS dose response experiments for compound 40-TDW-37 in H157, A549, H82 and Beas2B cells. FIG. 7 depicts the results of a 96 hr MTS dose response experiments for compound 42-TDW-4 in H157, A549, H82 and Beas2B cells. FIG. 8 depicts the results of a 96 hr MTS dose response experiments for compound 49-TDW-29c in H157, A549, H82 and Beas2B cells. FIG. 9 depicts the results of a 96 hr MTS dose response experiments for compound 49-TDW-32c in H157, A549, H82 and Beas2B cells. FIG. 10 depicts the results of a 96 hr MTS dose response experiments for compound 46-TDW-35c in H157, A549, H82 and Beas2B cells. FIG. 11 depicts the results of a 96 hr MTS dose response experiments for compound 39-TDW-3 in H157, A549, and H82 cells. FIG. 12 depicts the results of a 96 hr MTS dose response experiments for compound 39-TDW-12c in […], and A549 cells. FIG. 13 depicts the results of a 96 hr MTS dose response experiments for compound 39-TDW-20c in H157, and H82 cells. FIG. 14 depicts the results of a 96 hr MTS dose response experiments for compounds 39-TDw-47c and 39-TDW-43 in H157 cells. FIG. 15 depicts the results of a 96 hr MTS dose response experiments for compounds 42-TDW-9, 42-TDW-4c/6, 40-TDW-35, 42-TDW-38 and BENSpm in H157 cells. FIG. 16 depicts the results of a 96 hr MTS dose response experiments for compounds 46-TDW-34c, 42-TDW-12, 40-TDW-48, 46-TDW-44c and BENSpm in H157 cells. FIG. 17 depicts the results of a 96 hr MTS dose response experiments for compounds 42-TDW-20c, 46-TDW-22, 46-TDW-39, 49-TDW-29c and BENSpm in H157 cells. FIG. 18 depicts the results of a 96 hr MTS dose response experiments for compounds 39-TDW-43, 42-TDW-48c, 46-TDW-9, 46-TDW-23c and BENSpm in H157 cells. FIG. 19 depicts the results of a 96 hr MTS dose response experiments for compounds 42-TDW-35c, 46-TDW-44 and BENSpm in H157 cells.

[2] = test system: H157 (non-small cell lung carcinoma) cells; assay: Polyamine levels in H157 cells following treatment; format: cell-based, human; conditions: 24 hr
Method: (§3) Putrescine, spermidine, and spermine polyamine levels in H157 and H82 cells following exposure to select compounds were performed. Polyamine levels were determined using the precolumn dansylation labeling, reverse-phase high-pressure liquid chromatography method as described by Kabra et al., J. Chromotography, 380:19 (1986). The results are show in Tables 6 and 11 for H157 and H82 cells respectively. The compound identifier, treatment concentration, observed polyamine level, and exposure time are listed in columns 1, 2, 3, and 4 respectively. Polyamine levels are reported as increased (inc), decrease (dec), or no change (N/C). In some case the specific levels of putrescine, spermidine, and/or spermine are listed.

H82 cells = assay: Polyamine levels in H82 cells following treatment; format: cell-based, human; conditions: 24 hr
Method: as §3

[3] = test system: H82 (small lung cell carcinoma) cells; assay: 96 hr MTS dose response experiments in H82 cells; format: cell-based, human
Method: as §1, §2

[4] = test system: P19 embryonal carcinoma cells; conditions: P19 embryonal carcinoma cells treated; cited from earlier work
A549 cells = assay: 96 hr MTS dose response experiments in A549 cells; format: cell-based; conditions: Homo sapiens, 96 hr exposure
Method: as §1
Note that the results for a 72 hr exposure in addition to the 96 hr exposure are shown for compound 49-TDW-29C in the H157 cells. […]

[5] = Homo sapiens, NCI-H157, 96 hr exposure
[6] = 10 uM, inc = increased, dec = decrease, N/C = no change
[7] = Homo sapiens, NCI-H82, 96 hr exposure

Structure (SMILES) | IC50 [1, 5] | Polyamine Level [2, 6] | IC50 [3, 7] | other results
C=C(C)NCCCNCCCNCCCN [ZQW-35-7c] | > 10 µM | dec |  | Polyamine Level ([2]; 5 uM): slight dec; Polyamine Level (H82 cells; 10 uM): N/C
C=C(C)NCCCNCCCNCCCNC(=C)C [ZQW-35-8] | > 10 µM | N/C |  | Polyamine Level (H82 cells; 10 uM): N/C, slight
CC1(C)C2CCC(CNCCCNCCCNCCCNCC3CCC4CC3C4(C)C)C1C2 (stereo not drawn) [ZQW-35] | 1 to 10 µM |  | < 1 µM | Polyamine Level ([2]; 4 uM): N/C
C=C(CNCCCNCC)CNCCCNCC [ZQW-44] | > 13 µM | N/C |  | Polyamine Level (H82 cells; 50 uM): inc
CC(C)(C)CCNCCCNCCCNCCCNCC(F)(F)F [40-TDW-19] | 5.3 to 26.5 µM |  | 5 to 10 µM | 
N[C@@H]1C[C@H]1c1ccccc1 [tranylcypromine, (1R,2S)-2-phenylcyclopropan-1-amine] |  |  |  | effect on transcription of Egr1 and Oct4 genes [4]: transcriptional de-repression of the Egr1 and Oct4 genes
CCSCCNCCCNCCCNCCCNCCSCC [49-TDW-15] |  |  |  | IC50 ([1]; 96 hr exposure): 0.5 to 1 µM; IC50 ([3]; 96 hr exposure): 10 to 50 µM
C=C(C)NCCCNCCCNCCCNCC [ZQW-35-8c] | 1 to 10 µM | dec |  | Polyamine Level, spd, spm ([2]; spermidine and spermine, 10 uM): 1 g dec; Polyamine Level (H82 cells; 10 uM): N/C, slight
CCNCCCNCCCNCCCNCC1CCC2CC1C2(C)C (stereo not drawn) [ZQW-36] | 1 to 10 µM | slight dec | 1 to 10 µM | Polyamine Level, Spm ([2]; spermine (Spm), 10 uM): inc
C=C(CNCC)CNCCCNCCCNCC [ZQW-46] | 13 µM | N/C |  | Polyamine Level (H82 cells; 5-uM): dec
c1ccc(-c2ccccc2CNCCCNCCCNCCCNCc2ccccc2-c2ccccc2)cc1 [39-TDW-3] | 0.53 to 2.7 µM |  | 0.53 to 2.7 µM | IC50 (A549 cells): 1 to 10 µM
CCNCCCNCCCNCCCNCc1ccccc1-c1ccccc1 [39-TDW-20c] | 2.76 to 5.52 µM |  | 2.76 to 5.52 µM | IC50 (A549 cells): > 10 µM
CCNCCCNCCCNCCCNCCCCc1cc2cccc3ccc4cccc1c4c32 [40-TDW-23] |  |  |  | IC50 ([1]; 96 hr exposure): 10 to 50 µM; IC50 ([3]; 96 hr exposure): 10 to 50 µM
CC1(C)C2CCC(CNCCCNCCCNCCCN)C1C2 (stereo not drawn) [ZQW-35c] | 1 to 10 µM |  | 1 to 10 µM | 
